According to the supplement of paper PMC13207355:
± gives the standard deviation of the averaged measurements.

How the values were obtained:
Details in all cases: exposure time: 72 h
[1] = system: E21 (patient-derived glioblastoma stem cells of mesenchymal subtype); assay: phenotypic distance (Euclidean, principal components) from DMSO controls (arbitrary units); higher = stronger morphological change
[2] = system: E28 (patient-derived glioblastoma stem cells of classical subtype); assay: as above
[3] = system: E34 (patient-derived glioblastoma stem cells of proneural subtype); assay: as above
[4] = system: FT3469 (normal neural stem cell line); assay: as above
[5] = system: E13 (patient-derived glioblastoma stem cells of classical subtype); assay: as above
[6] = system: E57 (patient-derived glioblastoma stem cells of mesenchymal subtype); assay: as above
[7] = system: E21; assay: surviving fraction (nuclei count normalised to DMSO); higher = more cells surviving (less toxic)
[8] = system: E28; assay: as above
[9] = system: E34; assay: as above
[10] = system: FT3469; assay: as above
[11] = system: E13; assay: as above
[12] = system: E57; assay: as above
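For phenotypic distance (Euclidean, principal components) from DMSO controls in this document: cell Painting imaging in 384-well plates, CellProfiler features reduced to at least 20 principal components, Euclidean distance versus same-plate DMSO vehicle wells (0.1% v/v), median over six images per well.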
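For surviving fraction (nuclei count normalised to DMSO) in this document: nuclei counted by high-content imaging of Hoechst-stained cells in laminin-coated 384-well plates, relative to 0.1% DMSO vehicle wells, with staurosporine as cell-death control.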

Structure (SMILES): Cc1cc(C)c(CN2CCc3c(Cl)cc(-c4c(C)noc4C)c(Cl)c3C2=O)c(=O)[nH]1
- phenotypic distance ([1]; 4.1 nM): 0.846
- phenotypic distance ([1]; 4.11523 nM): 0.624
- phenotypic distance ([1]; 12.3 nM): 0.502
- phenotypic distance ([1]; 12.34567901 nM): 0.663
- phenotypic distance ([1]; 37 nM): 0.782
- phenotypic distance ([1]; 37.037 nM): 0.448
- phenotypic distance ([1]; 111.1 nM): 0.333
- phenotypic distance ([1]; 111.1111111 nM): 2.67
- phenotypic distance ([1]; 333.3 nM): 1.29
- phenotypic distance ([1]; 333.333 nM): 0.358
- phenotypic distance ([1]; 1000 nM): 0.536 ± 0.2
- phenotypic distance ([1]; 3000 nM): 0.603 ± 0.36
- phenotypic distance ([2]; 4.1 nM): 0.563
- phenotypic distance ([2]; 4.11523 nM): 0.484
- phenotypic distance ([2]; 12.3 nM): 0.447
- phenotypic distance ([2]; 12.34567901 nM): 0.539
- phenotypic distance ([2]; 37 nM): 0.798
- phenotypic distance ([2]; 37.037 nM): 0.532
- phenotypic distance ([2]; 111.1 nM): 0.371
- phenotypic distance ([2]; 111.1111111 nM): 2.05
- phenotypic distance ([2]; 333.3 nM): 0.616
- phenotypic distance ([2]; 333.333 nM): 0.607
- phenotypic distance ([2]; 1000 nM): 0.701 ± 0.3
- phenotypic distance ([2]; 3000 nM): 0.617 ± 0.34
- phenotypic distance ([3]; 4.1 nM): 0.88
- phenotypic distance ([3]; 4.11523 nM): 0.409
- phenotypic distance ([3]; 12.3 nM): 0.682
- phenotypic distance ([3]; 12.34567901 nM): 0.739
- phenotypic distance ([3]; 37 nM): 1.1
- phenotypic distance ([3]; 37.037 nM): 0.359
- phenotypic distance ([3]; 111.1 nM): 0.667
- phenotypic distance ([3]; 111.1111111 nM): 0.478
- phenotypic distance ([3]; 333.3 nM): 1.23
- phenotypic distance ([3]; 333.333 nM): 0.552
- phenotypic distance ([3]; 1000 nM): 0.66 ± 0.035
- phenotypic distance ([3]; 3000 nM): 1.1 ± 0.52
- phenotypic distance ([4]; 4.1 nM): 0.799
- phenotypic distance ([4]; 4.11523 nM): 0.574
- phenotypic distance ([4]; 12.3 nM): 0.456
- phenotypic distance ([4]; 12.34567901 nM): 0.531
- phenotypic distance ([4]; 37 nM): 3.66
- phenotypic distance ([4]; 37.037 nM): 0.66
- phenotypic distance ([4]; 111.1 nM): 0.618
- phenotypic distance ([4]; 111.1111111 nM): 0.467
- phenotypic distance ([4]; 333.3 nM): 0.925
- phenotypic distance ([4]; 333.333 nM): 1.74
- phenotypic distance ([4]; 1000 nM): 0.694 ± 0.16
- phenotypic distance ([4]; 3000 nM): 0.451 ± 0.024
- phenotypic distance ([5]; 4.1 nM): 0.55
- phenotypic distance ([5]; 4.11523 nM): 0.762
- phenotypic distance ([5]; 12.3 nM): 0.528
- phenotypic distance ([5]; 12.34567901 nM): 0.464
- phenotypic distance ([5]; 37 nM): 0.636
- phenotypic distance ([5]; 37.037 nM): 0.555
- phenotypic distance ([5]; 111.1 nM): 0.599
- phenotypic distance ([5]; 111.1111111 nM): 0.586
- phenotypic distance ([5]; 333.3 nM): 0.546
- phenotypic distance ([5]; 333.333 nM): 2.27
- phenotypic distance ([5]; 1000 nM): 0.5296 ± 0.00081
- phenotypic distance ([5]; 3000 nM): 1.67 ± 0.87
- phenotypic distance ([6]; 4.1 nM): 0.289
- phenotypic distance ([6]; 4.11523 nM): 0.517
- phenotypic distance ([6]; 12.3 nM): 0.432
- phenotypic distance ([6]; 12.34567901 nM): 0.412
- phenotypic distance ([6]; 37 nM): 0.351
- phenotypic distance ([6]; 37.037 nM): 0.334
- phenotypic distance ([6]; 111.1 nM): 0.307
- phenotypic distance ([6]; 111.1111111 nM): 0.418
- phenotypic distance ([6]; 333.3 nM): 0.28
- phenotypic distance ([6]; 333.333 nM): 0.343
- phenotypic distance ([6]; 1000 nM): 0.373 ± 0.028
- phenotypic distance ([6]; 3000 nM): 0.511 ± 0.018
- surviving fraction ([7]; 4.1 nM): 0.906
- surviving fraction ([7]; 4.11523 nM): 0.889
- surviving fraction ([7]; 12.3 nM): 1.06
- surviving fraction ([7]; 12.34567901 nM): 0.956
- surviving fraction ([7]; 37 nM): 0.952
- surviving fraction ([7]; 37.037 nM): 0.858
- surviving fraction ([7]; 111.1 nM): 1.03
- surviving fraction ([7]; 111.1111111 nM): 1.03
- surviving fraction ([7]; 333.3 nM): 0.966
- surviving fraction ([7]; 333.333 nM): 0.985
- surviving fraction ([7]; 1000 nM): 0.973 ± 0.022
- surviving fraction ([7]; 3000 nM): 0.984 ± 0.076
- surviving fraction ([8]; 4.1 nM): 0.912
- surviving fraction ([8]; 4.11523 nM): 1.06
- surviving fraction ([8]; 12.3 nM): 1.07
- surviving fraction ([8]; 12.34567901 nM): 0.996
- surviving fraction ([8]; 37 nM): 0.901
- surviving fraction ([8]; 37.037 nM): 1.05
- surviving fraction ([8]; 111.1 nM): 0.947
- surviving fraction ([8]; 111.1111111 nM): 0.947
- surviving fraction ([8]; 333.3 nM): 0.95
- surviving fraction ([8]; 333.333 nM): 1.17
- surviving fraction ([8]; 1000 nM): 0.98 ± 0.18
- surviving fraction ([8]; 3000 nM): 0.991 ± 0.028
- surviving fraction ([9]; 4.1 nM): 0.921
- surviving fraction ([9]; 4.11523 nM): 0.993
- surviving fraction ([9]; 12.3 nM): 1.13
- surviving fraction ([9]; 12.34567901 nM): 0.993
- surviving fraction ([9]; 37 nM): 0.811
- surviving fraction ([9]; 37.037 nM): 0.929
- surviving fraction ([9]; 111.1 nM): 1.11
- surviving fraction ([9]; 111.1111111 nM): 0.938
- surviving fraction ([9]; 333.3 nM): 0.85
- surviving fraction ([9]; 333.333 nM): 1.01
- surviving fraction ([9]; 1000 nM): 0.861 ± 0.086
- surviving fraction ([9]; 3000 nM): 0.96 ± 0.036
- surviving fraction ([10]; 4.1 nM): 0.866
- surviving fraction ([10]; 4.11523 nM): 0.918
- surviving fraction ([10]; 12.3 nM): 0.934
- surviving fraction ([10]; 12.34567901 nM): 0.961
- surviving fraction ([10]; 37 nM): 0.862
- surviving fraction ([10]; 37.037 nM): 0.857
- surviving fraction ([10]; 111.1 nM): 0.892
- surviving fraction ([10]; 111.1111111 nM): 1.05
- surviving fraction ([10]; 333.3 nM): 0.977
- surviving fraction ([10]; 333.333 nM): 0.9
- surviving fraction ([10]; 1000 nM): 0.914 ± 0.063
- surviving fraction ([10]; 3000 nM): 0.971 ± 0.035
- surviving fraction ([11]; 4.1 nM): 1.06
- surviving fraction ([11]; 4.11523 nM): 0.856
- surviving fraction ([11]; 12.3 nM): 1.14
- surviving fraction ([11]; 12.34567901 nM): 0.965
- surviving fraction ([11]; 37 nM): 0.832
- surviving fraction ([11]; 37.037 nM): 1
- surviving fraction ([11]; 111.1 nM): 1.12
- surviving fraction ([11]; 111.1111111 nM): 1.02
- surviving fraction ([11]; 333.3 nM): 0.891
- surviving fraction ([11]; 333.333 nM): 1.06
- surviving fraction ([11]; 1000 nM): 1.01 ± 0.038
- surviving fraction ([11]; 3000 nM): 0.89 ± 0.063
- surviving fraction ([12]; 4.1 nM): 0.932
- surviving fraction ([12]; 4.11523 nM): 0.986
- surviving fraction ([12]; 12.3 nM): 0.955
- surviving fraction ([12]; 12.34567901 nM): 0.938
- surviving fraction ([12]; 37 nM): 1.02
- surviving fraction ([12]; 37.037 nM): 1.04
- surviving fraction ([12]; 111.1 nM): 0.932
- surviving fraction ([12]; 111.1111111 nM): 1.01
- surviving fraction ([12]; 333.3 nM): 1
- surviving fraction ([12]; 333.333 nM): 1.01
- surviving fraction ([12]; 1000 nM): 1.02 ± 0.025
- surviving fraction ([12]; 3000 nM): 1.06 ± 0.093
